As a reminder, the pIC50 is the negative decadic logarithm of the IC50, by convention in mol/L.

The source of these data is US9260455B2, “Alkyl-substituted hexahydropyrano[3,4-d][1,3]thiazin-2-amine compounds” (Pfizer Inc., priority 2012, dated 2016).

In one assay the target is BACE1 (Homo sapiens (Human), UniProt P56817). As to the kind of experiment: BACE1 Cell-Free Assay. Type of assay: biochemical. As to conditions: fluorescence polarization; 0.1 nM BACE1, 150 nM peptide substrate, pH 4.5, 3 hours at 37° C.; geometric mean.
Chain of BACE1 (P56817 46-457): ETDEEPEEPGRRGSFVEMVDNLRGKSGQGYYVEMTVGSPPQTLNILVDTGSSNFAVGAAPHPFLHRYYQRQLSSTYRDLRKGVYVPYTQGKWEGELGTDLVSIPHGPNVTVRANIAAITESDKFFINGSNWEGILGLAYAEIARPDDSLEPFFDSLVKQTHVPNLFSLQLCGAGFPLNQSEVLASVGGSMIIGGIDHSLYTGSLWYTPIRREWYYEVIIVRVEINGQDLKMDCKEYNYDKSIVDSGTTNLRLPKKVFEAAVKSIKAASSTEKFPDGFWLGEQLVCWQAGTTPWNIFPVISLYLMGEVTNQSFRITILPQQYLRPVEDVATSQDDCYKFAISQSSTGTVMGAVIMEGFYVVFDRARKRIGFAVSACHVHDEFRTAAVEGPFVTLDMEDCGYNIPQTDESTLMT
The test system of assay [1] is H4 human neuroglioma cells over-expressing the wild-type human APP695. The assay is described as follows: sAPPβ Whole-Cell Assay (in vitro sAPPb assay). Format: cell-based. The settings on record: read-out: sAPPβ Whole-Cell Assay IC50. On the procedure:
Whole Cell Assay (In Vitro sAPPb Assay):
H4 human neuroglioma cells over-expressing the wild-type human APP695 are treated for 18 hours with compound in cell growth media having a final concentration 1% DMSO. sAPPβ levels are measured using TMB-ELISA with capture APP N-terminal antibody (Affinity BioReagents, OMA1-03132), wild-type sAPPβ specific reporter p192 (Elan), and tertiary anti rabbit-HRP (GE Healthcare).

The next assay deals with BACE2 (Homo sapiens (Human), UniProt Q9Y5Z0). As to the kind of experiment: BACE2 Cell-free Assay. Format: biochemical. The settings on record: fluorescence polarization; 2.5 nM BACE2, 150 nM peptide substrate, pH 4.5, 3 hours at 37° C.; geometric mean. The protocol: BACE2 Assay: This assay measures the inhibition of the BACE2 enzyme as it cleaves a non-native peptide. […] The substrate is Biotin-[…](Oregon green)-KK-OH. The BACE2 enzyme is available from Enzo Life Sciences (Cat #BML-SE550). Compounds are incubated in a 1⁄2 log dose response curve from a top concentration of 100 μM with BACE2 enzyme and the biotinylated fluorescent peptide in 384-well black plates (Thermo Scientific #4318). […] Plates are covered and incubated for 3 hours at 37° C. The reaction is stopped with the addition of 30 μL of 1.5 μM Streptavidin (Pierce, #21125). After a 10 minute incubation at room temperature, plates are read on a PerkinElmer Envision for fluorescent polarization (Ex485 nm/Em530 nm). The activity of the beta-secretase enzyme is detected by changes in the fluorescence polarization that occur when the substrate is cleaved by the enzyme.
Chain of BACE2 (Q9Y5Z0 63-518): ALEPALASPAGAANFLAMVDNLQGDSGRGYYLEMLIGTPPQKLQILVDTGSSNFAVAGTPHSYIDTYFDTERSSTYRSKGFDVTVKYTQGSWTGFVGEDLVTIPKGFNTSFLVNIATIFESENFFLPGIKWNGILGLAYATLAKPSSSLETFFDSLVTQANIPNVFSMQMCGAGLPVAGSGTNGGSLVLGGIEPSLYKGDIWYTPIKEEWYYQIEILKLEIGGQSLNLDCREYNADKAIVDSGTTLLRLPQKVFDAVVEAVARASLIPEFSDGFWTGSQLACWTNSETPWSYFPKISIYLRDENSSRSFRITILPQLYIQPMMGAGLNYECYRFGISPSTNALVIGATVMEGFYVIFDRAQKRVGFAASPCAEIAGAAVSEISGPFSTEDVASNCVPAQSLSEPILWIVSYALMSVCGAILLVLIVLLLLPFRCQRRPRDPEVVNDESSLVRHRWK

Setting [2] is: H4 cells, 18 hours with compound, sAPPβ by TMB-ELISA, geometric mean.

pIC50: −log10 of the molar value. Read-outs that look alike come from different tables or passages of the source.

Consider `C[C@H]1SC(N)=N[C@@]2(c3ccc(F)cc3F)CO[C@@H](CF)C[C@@H]12` [Example 1, (4R,4aR,6R,8aS)-8a-(2,4-Difluorophenyl)-6-(fluoromethyl)-4-methyl-4,4a,5,6,8,8a-hexahydropyrano[3,4-d][1,3]thiazin-2-amine], for which the pIC50 against BACE1 is 6.09; in assay [1] (setting [2]), 7.21; on BACE2 it was 5.81.
Regarding `COC[C@H]1C[C@H]2[C@@H](C)SC(N)=N[C@@]2(c2ccc(F)cc2F)CO1` [Example 2, (4R,4aR,6R,8aS)-8a-(2,4-Difluorophenyl)-6-(methoxymethyl)-4-methyl-4,4a,5,6,8,8a-hexahydropyrano[3,4-d][1,3]thiazin-2-amine], the pIC50 is 6.13 against BACE1, 7.50 in assay [1] (setting [2]) and 5.64 on BACE2.
Consider `C[C@H]1C[C@H]2CSC(N)=N[C@@]2(c2ccc(F)cc2F)CO1` [Example 3, (4aR,6S,8aS)-8a-(2,4-Difluorophenyl)-6-methyl-4,4a,5,6,8,8a-hexahydropyrano[3,4-d][1,3]thiazin-2-amine], for which the results for the pIC50 (in assay [1] (setting [2]); at BACE2) were 7.43 and 5.94, respectively.
As to `NC1=N[C@@]2(c3ccc(F)cc3F)CO[C@@H](C(F)F)C[C@H]2CS1` [Example 4, (4aR,6R,8aS)-6-(Difluoromethyl)-8a-(2,4-difluorophenyl)-4,4a,5,6,8,8a-hexahydropyrano[3,4-d][1,3]thiazin-2-amine], the pIC50 against BACE2 is 5.67.
As for `CCOC[C@H]1C[C@H]2[C@@H](C)SC(N)=N[C@@]2(c2ccc(F)cc2F)CO1` [Example 5, (4R,4aR,6R,8aS)-8a-(2,4-Difluorophenyl)-6-(ethoxymethyl)-4-methyl-4,4a,5,6,8,8a-hexahydropyrano[3,4-d][1,3]thiazin-2-amine], the pIC50 was 6.21 on BACE1, 7.41 in assay [1] (18 h) and 6.56 against BACE2.
Consider `CC(C)OC[C@H]1C[C@H]2[C@@H](C)SC(N)=N[C@@]2(c2ccc(F)cc2F)CO1` [Example 6, (4R,4aR,6R,8aS)-8a-(2,4-Difluorophenyl)-4-methyl-6-[(propan-2-yloxy)methyl]-4,4a,5,6,8,8a-hexahydropyrano[3,4-d][1,3]thiazin-2-amine], for which the negative logarithm of the IC50 (pIC50) at BACE1 is 6.14; in assay [1] (setting [2]) it was 7.37; at BACE2, 5.29.
With `CC(C)C[C@H]1C[C@H]2CSC(N)=N[C@@]2(c2ccc(F)cc2F)CO1` [Example 7, (4aR,6S,8aS)-8a-(2,4-Difluorophenyl)-6-(2-methylpropyl)-4,4a,5,6,8,8a-hexahydropyrano[3,4-d][1,3]thiazin-2-amine], in assay [1] (setting [2]), the negative logarithm of the IC50 (pIC50) is 7.69.
As to `COC[C@H]1C[C@H]2CSC(N)=N[C@@]2(c2ccc(F)cc2F)CO1` [Example 8, (4aR,6R,8aS)-8a-(2,4-Difluorophenyl)-6-(methoxymethyl)-4,4a,5,6,8,8a-hexahydropyrano[3,4-d][1,3]thiazin-2-amine], the results for the pIC50 (in assay [1] (setting [2]); on BACE2) were 7.52 and 5.79, respectively.
